{
  "source": "patent US20080096852A1",
  "about": "“USE OF OCULOSURFACE SELECTIVE GLUCOCORTICOID IN THE TREATMENT OF DRY EYE” (Alcon,Inc., priority 2002, published 2008)",
  "key": {"[1]": {"test_system": "dry eye in patients with autoimmune connective tissue disease", "conditions": "human patients; suspensions 0.005%, 0.05% and 0.1%; one drop each eye four times per day for six weeks", "source_text": "Three different suspensions, containing rimexolone at concentrations of 0.005%, 0.05% and 0.1%, respectively, were utilized in the study. A fourth formulation, which was identical to the three rimexolone suspensions except for the elimination of rimexolone, was utilized as a control (i.e., placebo).\nThe patients in each group administered one drop of the respective formulations to each eye four times per day for six weeks. Following the end of the six week drug administration period, the patients' symptoms were evaluated."}, "[2]": {"test_system": "desiccation-induced corneal injury in rabbits", "test": "Desiccation-induced corneal injury (methylene blue uptake) after lacrimal gland inflammation", "format": "in vivo, New Zealand white rabbits", "conditions": "rabbit", "procedure": "The ability of low doses of rimexolone to alleviate dry eye conditions was evaluated. […] The experimental procedures are described below. In a separate group of animals, susceptibility to desiccation-induced corneal injury was assessed following the induction of lacrimal gland inflammation. Desiccation was initiated by placing the rabbits in a low humidity environment continuously for up to three days. Corneal injury was assessed by determining the uptake of the vital dye, methylene blue. Under general anesthesia, the ocular surface was bathed in a 1% solution of methylene blue for five minutes and then washed. The animals were euthanized, eyes were excised and an 8 mm-diameter section of cornea was isolated and extracted overnight. The concentration of extracted dye was determined spectrophotometrically ([…]). Protection of the cornea is indicated by a lesser uptake of dye in drug treated animals relative to that in vehicle treated rabbits. For both TBUT and corneal injury determinations, dosing (QID) was initiated 24-hours prior to inducing inflammation and was continued for the duration of the study. A second dose-response study was conducted using the procedures described in Example 2 above."}, "[3]": {"test_system": "dry eye induced in New Zealand white rabbits", "test": "Tear breakup time (TBUT) in rabbit dry eye model (lacrimal gland inflammation)", "format": "in vivo", "procedure": "The ability of low doses of rimexolone to alleviate dry eye conditions was evaluated. […] The experimental procedures are described below. Dry eye was induced in New Zealand white rabbits (approximately 2 kg) by eliciting bilateral inflammation of the lacrimal glands. Tear function was assessed by measuring tear breakup time (“TBUT”) daily for three days, following the induction of dry eye. TBUT was determined by instilling […] into the cul de sac and manually blinking the lids to distribute the fluorescein within the tear film. Under slit lamp observation, the eye was held open and the time to tear film breakup recorded. Efficacy was determined by comparing TBUT relative to pre-inflammation baseline values in drug and vehicle treated animals. In a separate group of animals, susceptibility to desiccation-induced corneal injury was assessed following the induction of lacrimal gland inflammation. Desiccation was initiated by placing the rabbits in a low humidity environment continuously for up to three days. Corneal injury was assessed by determining the uptake of the vital dye, methylene blue. Under general anesthesia, the ocular surface was bathed in a 1% solution of methylene blue for five minutes and then washed. The animals were euthanized, eyes were excised and an 8 mm-diameter section of cornea was isolated and extracted overnight. The concentration of extracted dye was determined spectrophotometrically ([…]). Protection of the cornea is indicated by a lesser uptake of dye in drug treated animals relative to that in vehicle treated rabbits. For both TBUT and corneal injury determinations, dosing (QID) was initiated 24-hours prior to inducing inflammation and was continued for the duration of the study. A second dose-response study was conducted using the procedures described in Example 2 above."}, "[4]": {"conditions": "Example 2, tested 0.005%, 0.01%, 0.05 and 0.1%"}, "[5]": {"conditions": "Example 3 (second dose-response study)"}},
  "data": [
    {"smiles": "CCC(=O)[C@@]1(C)[C@H](C)C[C@H]2[C@@H]3CCC4=CC(=O)C=C[C@]4(C)[C@H]3[C@@H](O)C[C@@]21C", "note": "[rimexolone]", "values": [
      {"measurement": "dry eye symptoms (discomfort) versus vehicle/placebo", "setting": "[1]", "result": "less dry eye symptoms"},
      {"measurement": "increases in intraocular pressure", "setting": "[1]", "result": "did not exhibit any clinically relevant increases in intraocular pressure"},
      {"measurement": "inhibition of desiccation-induced corneal injury (peak efficacy)", "setting": "[2]; Example 2, rimexolone 0.1% suspension, QID, FIG. 2", "result": 74, "unit": "% inhibition"},
      {"measurement": "maximally effective concentration for prevention of desiccation-induced corneal staining", "setting": "[2]; [4]", "result": 0.1, "unit": "%"},
      {"measurement": "maximally effective concentration for prevention of desiccation-induced corneal staining", "setting": "[2]; [5]", "result": 0.1, "unit": "%"},
      {"measurement": "inhibition of corneal staining", "setting": "[2]; Example 3 (second dose-response study), rimexolone 0.1%, FIG. 4", "result": 77, "unit": "%"},
      {"measurement": "TBUT expressed as percent of baseline on day three", "setting": "[3]; Example 2, rimexolone 0.1% suspension, QID, FIG. 1", "result": "66 % of baseline"},
      {"measurement": "maximally effective concentration for restoration of TBUT", "setting": "[3]; [4]", "result": 0.1, "unit": "%"},
      {"measurement": "maximally effective concentration for restoration of TBUT", "setting": "[3]; [5]", "result": 0.1, "unit": "%"},
      {"measurement": "TBUT restored, percent of baseline on day three", "setting": "[3]; Example 3 (second dose-response study), rimexolone 0.1%, FIG. 3", "result": "71 % of baseline"}
    ]}
  ]
}
